# Values of other authors, collected in CN102406622A, “一种托伐普坦的固体制剂” (Zhejiang Huahai Pharmaceutical Co Ltd, priority 2011, dated 2012).
# Conditions: low solubility, low permeability
structure (smiles),measurement,value
"Cc1ccccc1C(=O)Nc1ccc(C(=O)N2CCC[C@@H](O)c3cc(Cl)ccc32)c(C)c1 [托伐普坦, N-[4-[(5R)-7-氯-5-羟基-2,3,4,5-四氢-1-苯并氮杂卓-1-甲酰基]-3-甲基苯基]-2-甲基苯甲酰胺]",BCS class,IV类药
